EC50 data for 31 molecules are collected here from patent US9663473B2 (Actelion Pharmaceuticals Ltd, priority 2013, dated 2017).

In the assay the target is T1, recombinant human ALX receptor (Homo sapiens, UniProt P25090).
T1 construct: expressed in transfected cells; host or cells: HEK293 (HEK293-hALXR-Gα16)
T1 sequence (P25090 1-351): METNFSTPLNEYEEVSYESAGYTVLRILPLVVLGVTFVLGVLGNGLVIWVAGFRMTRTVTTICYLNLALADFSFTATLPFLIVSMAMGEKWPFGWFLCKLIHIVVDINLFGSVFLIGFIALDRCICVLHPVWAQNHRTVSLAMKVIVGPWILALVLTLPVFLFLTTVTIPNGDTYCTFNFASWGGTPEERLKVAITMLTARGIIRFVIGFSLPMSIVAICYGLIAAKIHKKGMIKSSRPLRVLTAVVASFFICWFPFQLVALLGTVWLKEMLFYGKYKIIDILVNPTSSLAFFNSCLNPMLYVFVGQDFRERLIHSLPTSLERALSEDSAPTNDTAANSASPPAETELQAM
Kind of assay: Intracellular calcium measurements (FLIPR), ALX receptor agonistic activity. It counts as cell-based. Conditions: HEK293-hALXR-Gα16 cells, Fluo-4 calcium signal, normalized to WKYMVm 10 nM. Put shortly: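 HEK293 cells co-expressing human ALX receptor and Gα16 were loaded with 1 μM Fluo-4 AM for 60 min at 37° C., then exposed to serially diluted compounds on FLIPR Tetra. Peak fluorescence above baseline (ex 488/em 540 nm) was normalized to 10 nM WKYMVm as high control.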

With `COc1ccc(C[C@@H](NC(=O)Nc2cc(C3CC3)nn2C)c2nc3ccccc3[nH]2)cc1` [Example 314, (R)-1-(1-(1H-Benzo[d]imidazol-2-yl)-2-(4-methoxyphenyl)ethyl)-3-(3-cyclopropyl-1-methyl-1H-pyrazol-5-yl)urea], the EC50 came out at 14 nM.

In the case of `COc1ccc(C[C@@H](NC(=O)Nc2cccnc2)c2nc3ccccc3[nH]2)cc1` [Example 315, (R)-1-(1-(1H-Benzo[d]imidazol-2-yl)-2-(4-methoxyphenyl)ethyl)-3-(pyridin-3-yl)urea], the EC50 came out at 299 nM. The same measure for `COc1ccc(C[C@@H](NC(=O)N[C@H](C)c2ccc(F)cc2)c2nc3ccccc3[nH]2)cc1` [Example 320, 1-((R)-1-(1H-Benzo[d]imidazol-2-yl)-2-(4-methoxyphenyl)ethyl)-3-((R)-1-(4-fluorophenyl)ethyl)urea]: 185 nM.

Take `COc1ccc(C[C@@H](NC(=O)N[C@@H](C)c2ccc(F)cc2)c2nc3ccccc3[nH]2)cc1` [Example 321, 1-((R)-1-(1H-Benzo[d]imidazol-2-yl)-2-(4-methoxyphenyl)ethyl)-3-((S)-1-(4-fluorophenyl)ethyl)urea]: the EC50 stood at 128 nM. The same measure for `COc1ccc(C[C@@H](NC(=O)N[C@H](C)c2ccc(Br)cc2)c2nc3ccccc3[nH]2)cc1` [Example 322, 1-((R)-1-(1H-Benzo[d]imidazol-2-yl)-2-(4-methoxyphenyl)ethyl)-3-((R)-1-(4-bromophenyl)ethyl)urea]: 585 nM; for `COc1ccc(C[C@@H](NC(=O)N[C@@H](C)c2cccc(OC)c2)c2nc3ccccc3[nH]2)cc1` [Example 323, 1-((R)-1-(1H-Benzo[d]imidazol-2-yl)-2-(4-methoxyphenyl)ethyl)-3-((S)-1-(3-methoxyphenyl)ethyl)urea]: 44 nM. The same measure for `COc1ccc(C[C@@H](NC(=O)N[C@H](C)c2cccc(Cl)c2)c2nc3ccccc3[nH]2)cc1` [Example 324, 1-((R)-1-(1H-Benzo[d]imidazol-2-yl)-2-(4-methoxyphenyl)ethyl)-3-((R)-1-(3-chlorophenyl)ethyl)urea]: 712 nM; for `COc1ccc(C[C@@H](NC(=O)N[C@@H](C)c2cccc(Cl)c2)c2nc3ccccc3[nH]2)cc1` [Example 325, 1-((R)-1-(1H-Benzo[d]imidazol-2-yl)-2-(4-methoxyphenyl)ethyl)-3-((S)-1-(3-chlorophenyl)ethyl)urea]: 186 nM. The same measure for `COc1ccc(C[C@@H](NC(=O)N[C@@H](C)c2ccccc2OC)c2nc3ccccc3[nH]2)cc1` [Example 326, 1-((R)-1-(1H-Benzo[d]imidazol-2-yl)-2-(4-methoxyphenyl)ethyl)-3-((S)-1-(2-methoxyphenyl)ethyl)urea]: 46 nM; for `COc1ccc(C[C@@H](NC(=O)N[C@H](C)c2ccccc2OC)c2nc3ccccc3[nH]2)cc1` [Example 327, 1-((R)-1-(1H-Benzo[d]imidazol-2-yl)-2-(4-methoxyphenyl)ethyl)-3-((R)-1-(2-methoxyphenyl)ethyl)urea]: 310 nM; for `COc1ccc(C[C@@H](NC(=O)N[C@@H](C)c2ccc(Cl)cc2)c2nc3ccccc3[nH]2)cc1` [Example 328, 1-((R)-1-(1H-Benzo[d]imidazol-2-yl)-2-(4-methoxyphenyl)ethyl)-3-((S)-1-(4-chlorophenyl)ethyl)urea]: 152 nM. `COc1ccc(C[C@@H](NC(=O)N[C@H](C)c2ccc(Cl)cc2)c2nc3ccccc3[nH]2)cc1` [Example 329, 1-((R)-1-(1H-Benzo[d]imidazol-2-yl)-2-(4-methoxyphenyl)ethyl)-3-((R)-1-(4-chlorophenyl)ethyl)urea]: the EC50 was found to be 285 nM. Next, `COc1ccc(C[C@@H](NC(=O)N[C@@H](C)c2ccc(OC)cc2)c2nc3ccccc3[nH]2)cc1` [Example 330, 1-((R)-1-(1H-Benzo[d]imidazol-2-yl)-2-(4-methoxyphenyl)ethyl)-3-((S)-1-(4-methoxyphenyl)ethyl)urea]: 205 nM. In the case of `COc1ccc(C[C@@H](NC(=O)N[C@@H](C)c2ccc(Br)cc2)c2nc3ccccc3[nH]2)cc1` [Example 331, 1-((R)-1-(1H-Benzo[d]imidazol-2-yl)-2-(4-methoxyphenyl)ethyl)-3-((S)-1-(4-bromophenyl)ethyl)urea], the EC50 amounted to 146 nM.

In the case of `COc1ccc(C[C@@H](NC(=O)N[C@H](C)c2cccc(OC)c2)c2nc3ccccc3[nH]2)cc1` [Example 332, 1-((R)-1-(1H-Benzo[d]imidazol-2-yl)-2-(4-methoxyphenyl)ethyl)-3-((R)-1-(3-methoxyphenyl)ethyl)urea], the EC50 came to 101 nM. Next, `COc1ccc(C[C@@H](NC(=O)N[C@@H](C)c2ccc(C)cc2)c2nc3ccccc3[nH]2)cc1` [Example 333, 1-((R)-1-(1H-Benzo[d]imidazol-2-yl)-2-(4-methoxyphenyl)ethyl)-3-((S)-1-(p-tolyl)ethyl)urea]: 105 nM; `COc1ccc(C[C@@H](NC(=O)N[C@@H]2CCc3ccccc32)c2nc3ccccc3[nH]2)cc1` [Example 334, 1-((R)-1-(1H-Benzo[d]imidazol-2-yl)-2-(4-methoxyphenyl)ethyl)-3-((R)-2,3-dihydro-1H-inden-1-yl)urea]: 111 nM. Next, `CCC[C@@H](NC(=O)N[C@H](Cc1ccc(OC)cc1)c1nc2ccccc2[nH]1)c1ccccc1` [Example 335, 1-((R)-1-(1H-Benzo[d]imidazol-2-yl)-2-(4-methoxyphenyl)ethyl)-3-((R)-1-phenylbutyl)urea]: 372 nM; `COc1ccc(C[C@@H](NC(=O)N[C@H](C)c2ccc(OC)cc2)c2nc3ccccc3[nH]2)cc1` [Example 336, 1-((R)-1-(1H-Benzo[d]imidazol-2-yl)-2-(4-methoxyphenyl)ethyl)-3-((R)-1-(4-methoxyphenyl)ethyl)urea]: 248 nM; `COC(=O)c1ccc([C@H](C)NC(=O)N[C@H](Cc2ccc(OC)cc2)c2nc3ccccc3[nH]2)cc1` [Example 337, Methyl 4-((S)-1-(3-((R)-1-(1H-benzo[d]imidazol-2-yl)-2-(4-methoxyphenyl)ethyl)ureido)ethyl)benzoate]: 380 nM.

`COc1ccc(C[C@@H](NC(=O)NC(C)c2cn3ccsc3n2)c2nc3ccccc3[nH]2)cc1` (stereo partly drawn) [Example 338, 1-((R)-1-(1H-Benzo[d]imidazol-2-yl)-2-(4-methoxyphenyl)ethyl)-3-(1-(imidazo[2,1-b]thiazol-6-yl)ethyl)urea]: the EC50 amounted to 36 nM.

In the case of `COc1ccc(C[C@@H](NC(=O)N[C@H](C(N)=O)c2ccccc2)c2nc3ccccc3[nH]2)cc1` [Example 339, (S)-2-(3-((R)-1-(1H-Benzo[d]imidazol-2-yl)-2-(4-methoxyphenyl)ethyl)ureido)-2-phenylacetamide], the EC50 was 39 nM. Next, `COc1ccc(C[C@@H](NC(=O)NC2(c3ccc(Br)cc3)CC2)c2nc3ccccc3[nH]2)cc1` [Example 340, (R)-1-(1-(1H-Benzo[d]imidazol-2-yl)-2-(4-methoxyphenyl)ethyl)-3-(1-(4-bromophenyl)cyclopropyl)urea]: 268 nM; `COc1ccc(C[C@@H](NC(=O)NC2(c3ccc(F)cc3)CC2)c2nc3ccccc3[nH]2)cc1` [Example 341, (R)-1-(1-(1H-Benzo[d]imidazol-2-yl)-2-(4-methoxyphenyl)ethyl)-3-(1-(4-fluorophenyl)cyclopropyl)urea]: 397 nM; `COC(=O)c1ccc(C2(NC(=O)N[C@H](Cc3ccc(OC)cc3)c3nc4ccccc4[nH]3)CC2)cc1` [Example 342, (R)-Methyl 4-(1-(3-(1-(1H-benzo[d]imidazol-2-yl)-2-(4-methoxyphenyl)ethyl)ureido)cyclopropyl)benzoate]: 277 nM.

As for `COc1ccc(C[C@@H](NC(=O)NC(CCO)c2ccccc2)c2nc3ccccc3[nH]2)cc1` (stereo partly drawn) [Example 343, 1-((R)-1-(1H-Benzo[d]imidazol-2-yl)-2-(4-methoxyphenyl)ethyl)-3-(3-hydroxy-1-phenylpropyl)urea], the EC50 was found to be 40 nM. Next, `CC[C@@H](NC(=O)N[C@H](Cc1ccc(OC)cc1)c1nc2ccccc2[nH]1)c1ccccc1` [Example 344, 1-((R)-1-(1H-Benzo[d]imidazol-2-yl)-2-(4-methoxyphenyl)ethyl)-3-((R)-1-phenylpropyl)urea]: 167 nM; `CC[C@H](NC(=O)N[C@H](Cc1ccc(OC)cc1)c1nc2ccccc2[nH]1)c1ccccc1` [Example 345, 1-((R)-1-(1H-Benzo[d]imidazol-2-yl)-2-(4-methoxyphenyl)ethyl)-3-((S)-1-phenylpropyl)urea]: 127 nM; `COc1ccc(C[C@@H](NC(=O)NC2CCCc3c(OC)cccc32)c2nc3ccccc3[nH]2)cc1` (stereo partly drawn) [Example 346, 1-((R)-1-(1H-Benzo[d]imidazol-2-yl)-2-(4-methoxyphenyl)ethyl)-3-(5-methoxy-1,2,3,4-tetrahydronaphthalen-1-yl)urea]: 56 nM. Next, `COc1ccc(C[C@@H](NC(=O)N[C@@H](C)C2CCCCC2)c2nc3ccccc3[nH]2)cc1` [Example 347, 1-((R)-1-(1H-Benzo[d]imidazol-2-yl)-2-(4-methoxyphenyl)ethyl)-3-((S)-1-cyclohexylethyl)urea]: 365 nM. Next, `COc1ccc(C[C@@H](NC(=O)NC2CCc3cc(OC)c(OC)cc32)c2nc3ccccc3[nH]2)cc1` (stereo partly drawn) [Example 348, 1-((R)-1-(1H-Benzo[d]imidazol-2-yl)-2-(4-methoxyphenyl)ethyl)-3-(5,6-dimethoxy-2,3-dihydro-1H-inden-1-yl)urea]: 26 nM.
